# In US20120316211A1, “Diagnostic Methods for Assessing Risk of Chagas Disease and Heart Failure” (The Board or Regents of the University of Texas System, priority 2011, published 2012):
# What was measured:
# [1] = test system: Trypanosoma cruzi; details: cited from earlier work
# [2] = test system: T. cruzi; assay: Detection of carbonyl proteins (DNPH, anti-DNP Western blotting) in plasma of T. cruzi infected rats; assay type: in vivo, Sprague Dawley rats
# Experimental: (§1) Animals and parasites. Sprague Dawley rats (4-5-weeks-old, Harlan Labs) were infected with T. cruzi (SylvioX10/4, 50,000 trypomastigotes/rat, intraperitoneal). Rats were given 1.3 mM PBN (beginning day 0, throughout the course of infection) and/or 0.7 mM BZ (beginning day 40 pi, for three weeks) in drinking water. The plasma samples were obtained at acute ([…] days post-infection (dpi)) and chronic (>150 dpi) stages of infection and disease development.
# Detection of carbonyl proteins. IPG strips were loaded with protein samples and subjected to 1st-dimension isoelectric focusing, as above. IPG strips were then incubated with 1 ml of 3% SDS and 5 mM 2,4-dinitrophenylhydrazine (DNPH)/10% trifluoroacetic acid for 25 min. […] Membranes were hybridized with rabbit anti-DNP antibody (1:300 dilution, Invitrogen) and HRP-conjugated goat anti-rabbit secondary antibody (1:4000 dilution, Sigma), and signal detected by using an Amersham™ ECL Plus system, according to the manufacturer's protocol (Levine et al., (1990) Methods Enzymol, 186, 464-78; Wen and Garg, (2004) Free Radic Biol Med, 37, 2072-81). Images were visualized, digitized, and signal was quantified by densitometry by using a FluorChem 8800 image analyzer (Alpha Innotech). […]
# [3] = test system: T. cruzi; assay: 2D-GE plasma proteome profile of T. cruzi infected rats treated with PBN and/or BZ; assay type: in vivo, Sprague Dawley rats
# Experimental: as §1
# (§2) Rat plasma collection and removal of high-abundance proteins. Whole blood was collected in K3EDTA vacutainers and kept on ice for 30 min. The samples were centrifuged for 15 min at 3,000 g, and the lipid-containing upper layer was removed. The abundant proteins (e.g., albumin, α1-acid glycoprotein, α1-antitrypsin, α2-5 macroglobulin, apolipoproteins (ApoA-I, ApoA-II), fibrinogen, haptoglobin, immunoglobulins (IgA, IgG, and IgM), and transferrin) in plasma were removed using ProteomeLab IgY-12 LC 10 affinity spin columns (Beckman Coulter). The plasma samples depleted of abundant proteins were then concentrated by using Amicon® ultra centrifugal filters (3 kDa cut-off, from Millipore) and desalted by PD-10 desalting columns (GE Healthcare). Protein content was determined by using the Bradford assay (Bio-Rad).
# (§3) Two-dimensional gel electrophoresis. The 11-cm immobilized pH gradient (IPG) strips (pH: 3-10 or 5-8, Bio-Rad) were rehydrated at 50 V for 12 h with 250-μl rehydration buffer (1 M thiourea, 8 M urea, 2% CHAPS, 1% dithiothreitol, and 0.2% ampholytes) containing 200-μg protein samples and 0.002% of bromophenol blue. Isoelectric focusing was performed at 500 V for 1 h, 1000 V for 1 h, 8000 V for 2 h, and then at 8000 V for a total of 50,000 Vh. The IPG strips were suspended in equilibration buffer (50 mM Tris-HCI, pH 6.8, 6 M urea, 20% glycerol) and sequentially incubated for 15 min each in presence of 2% DTT/2% SDS (reducing conditions) and 2.5% iodoacetamide/2% SDS (alkylating conditions). Equilibrated IPG strips were subjected to second-dimension electrophoresis by using 8-10% linear gradient precast Tris-HCI gels (BioRad) on a PROTEAN plus Dodeca Cell System at 75 V for 1 h and then at 120 V until the dye front reached the bottom of the gel. Gels were fixed in 10% methanol/7% acetic acid, stained with SYPRO Ruby (BioRad), destained in 10% ethanol/7% acetic acid, and imaged by using a high-resolution ProXPRESS Proteomic Imaging System (Perkin Elmer).
# (§4) Image analysis. In total, 28 SYPRO Ruby-stained 2D gels (n=4/group) were digitalized on a ProXPRESS Proteomic Imaging System (Perkin Elmer), and the images were analyzed on Progenesis SameSpots™ software 2.0 (NonLinear Dynamics). Normalized spot volumes, i.e., the volume of each spot over the volume of all spots in the gel, were used for comparison of the different groups, and candidates were identified as protein spots that changed at least 2-fold versus their specific control. Statistical significance was assessed by a two-tailed Student's t-test and analysis of variance test (ANOVA), and p values of <0.05 were considered significant for comparison between control and experimental data.
# (§5) Sprague Dawley rats were infected with T. cruzi and treated with phenyl-α-tert-butyl nitrone (PBN, antioxidant) with or without benznidazole (BZ, anti-parasite drug). Plasma samples were collected at day 25 (acute stage) and 150 (chronic stage) post-infection, and depleted of high-abundance proteins to enrich detection of low-abundance proteins by 2D-gel electrophoresis. Gel images of plasma samples from normal rats (RN), rats that were acutely infected (RA) and treated with PBN (RAP), and chronically infected rats (RC) that were treated with PBN (RCP), BZ (RCB), or PBN and BZ (RCPB) were analyzed on Progenesis SameSpotst™ software and normalized spot volumes were used for comparison of different groups.
# [4] = as above; assay type: in vivo, Sprague Dawley rats; details: chronically infected rats (RCP, RCB, RCPB), depleted plasma
# Experimental: as §1, §2, §3, §4, §5
# [5] = chronically infected rats (RCP, RCB, RCPB), depleted plasma
smiles,measurement,setting,value
"O=C(Cn1ccnc1[N+](=O)[O-])NCc1ccccc1 [BZ, Benznidazole]",controlling parasitemia,[1]; acutely infected individuals,effective
same,efficacy in arresting or reversing disease progression,[1]; chronically infected patients,not clearly established
same,protein carbonylation,[2]; chronic chagasic plasma,not effective in preventing protein carbonylation
same,carbonylated protein spots,"[2]; chronically infected rats (RCP, RCB, RCPB), plasma",31
same,number of proteins stimulated in a treatment-specific manner,[3]; chronic chagasic plasma,2
same,number of proteins with altered expression,"[3]; chronic chagasic plasma, 22 of the 61 shared with BZ-treated rats",22
same,decline in the plasma proteome profile,[3]; chronically infected rats,30.1%
same,"Average Normalized Density × 100,000, spot 12, 180 KRT1",[3]; [5],9.47
same,"Average Normalized Density × 100,000, spot 34 TTC37",[3]; [5],0.37
same,"Average Normalized Density × 100,000, spot 37, 593 SRPRB",[3]; [5],3.21
same,"Average Normalized Density × 100,000, spot 49, 673 IGH-1",[3]; [5],3.98
same,"Average Normalized Density × 100,000, spot 52, 54, 302 TF",[3]; [5],0.60
same,"Average Normalized Density × 100,000, spot 53, 225 SroTP",[3]; [5],1.72
same,"Average Normalized Density × 100,000, spot 72 IDH3A",[3]; [5],83.09
same,"Average Normalized Density × 100,000, spot 73, 705, 787 ALB",[3]; [5],216.9
same,"Average Normalized Density × 100,000, spot 77 MUG1",[3]; [5],107.7
same,"Average Normalized Density × 100,000, spot 88 IGHG-",[3]; [5],4.75
same,"Average Normalized Density × 100,000, spot 94 FGB",[3]; [5],0.55
same,"Average Normalized Density × 100,000, spot 115, 123 SERPINAL1",[3]; [5],8.36
same,"Average Normalized Density × 100,000, spot 149 PUS1",[3]; [5],1.16
same,"Average Normalized Density × 100,000, spot 153 MYL2",[3]; [5],2.37
same,"Average Normalized Density × 100,000, spot 177 AIM",[3]; [5],2.77
same,"Average Normalized Density × 100,000, spot 181 SERPINA3L",[3]; [5],7.53
same,"Average Normalized Density × 100,000, spot 184, 257, 328 CFH",[3]; [5],6.15
same,"Average Normalized Density × 100,000, spot 207, 555 CCHL1A1",[3]; [5],11.32
same,"Average Normalized Density × 100,000, spot 215 GPT",[3]; [5],3.23
same,"Average Normalized Density × 100,000, spot 266 CEP350",[3]; [5],1.43
same,"Average Normalized Density × 100,000, spot 299 UMPS",[3]; [5],1.17
same,"Average Normalized Density × 100,000, spot 315 ITIH4",[3]; [5],5.19
same,"Average Normalized Density × 100,000, spot 334 ZNF689",[3]; [5],1.05
same,"Average Normalized Density × 100,000, spot 341 Nmag 2782",[3]; [5],1.44
same,"Average Normalized Density × 100,000, spot 355, 359 PLG",[3]; [5],3.29
same,"Average Normalized Density × 100,000, spot 382, 385, 378, 572, 578, 595 CFB",[3]; [5],23.45
same,"Average Normalized Density × 100,000, spot 389 GSN",[3]; [5],44.17
same,"Average Normalized Density × 100,000, spot 430 SCD2",[3]; [5],13.65
same,"Average Normalized Density × 100,000, spot 434, 678 COG1",[3]; [5],43.20
same,"Average Normalized Density × 100,000, spot 439 C4BPA",[3]; [5],1.36
same,"Average Normalized Density × 100,000, spot 452 AFM",[3]; [5],59.65
same,"Average Normalized Density × 100,000, spot 464 IGH-6",[3]; [5],4.66
same,"Average Normalized Density × 100,000, spot 479 IGHM",[3]; [5],8.65
same,"Average Normalized Density × 100,000, spot 493 ZFP637",[3]; [5],17.41
same,"Average Normalized Density × 100,000, spot 515 CESIC/ES2",[3]; [5],24.22
same,"Average Normalized Density × 100,000, spot 524 ERCC4",[3]; [5],68.54
same,"Average Normalized Density × 100,000, spot 551, 587, 908 C3",[3]; [5],32.88
same,"Average Normalized Density × 100,000, spot 559 HPX",[3]; [5],17.91
same,"Average Normalized Density × 100,000, spot 571 GC",[3]; [5],3.75
same,"Average Normalized Density × 100,000, spot 576, 620 Act-248",[3]; [5],2.38
same,"Average Normalized Density × 100,000, spot 586, 614 SERPINC1",[3]; [5],132.20
same,"Average Normalized Density × 100,000, spot 592 DNASE1L1",[3]; [5],11.70
same,"Average Normalized Density × 100,000, spot 604 APOH",[3]; [5],67.12
same,"Average Normalized Density × 100,000, spot 606 GC",[3]; [5],11.27
same,"Average Normalized Density × 100,000, spot 627 MAPI",[3]; [5],44.92
same,"Average Normalized Density × 100,000, spot 638 LOC501738",[3]; [5],4.69
same,"Average Normalized Density × 100,000, spot 649 SYNE2",[3]; [5],26.48
same,"Average Normalized Density × 100,000, spot 651 DSTN",[3]; [5],37.12
same,"Average Normalized Density × 100,000, spot 655 DLGAP2",[3]; [5],151.30
same,"Average Normalized Density × 100,000, spot 672 SERPINF",[3]; [5],23.29
same,"Average Normalized Density × 100,000, spot 676 rCG33447",[3]; [5],24.67
same,"Average Normalized Density × 100,000, spot 691 APOA4",[3]; [5],65.41
same,"Average Normalized Density × 100,000, spot 715 SERPINA1",[3]; [5],30.96
same,"Average Normalized Density × 100,000, spot 724 ALB",[3]; [5],2.19
same,"Average Normalized Density × 100,000, spot 728 SYMPK",[3]; [5],2.21
same,"Average Normalized Density × 100,000, spot 733 DECR2",[3]; [5],1.67
same,"Average Normalized Density × 100,000, spot 740 PRPH",[3]; [5],4.02
same,"Average Normalized Density × 100,000, spot 745 PFKFB1",[3]; [5],2.30
same,"Average Normalized Density × 100,000, spot 749 MY05B",[3]; [5],2.46
same,"Average Normalized Density × 100,000, spot 766 SCG2",[3]; [5],3.79
same,"Average Normalized Density × 100,000, spot 779, 909 VIM",[3]; [5],3.08
same,"Average Normalized Density × 100,000, spot 796 Hypothetical p",[3]; [5],5.11
same,"Average Normalized Density × 100,000, spot 814 RBM15B",[3]; [5],3.61
same,"Average Normalized Density × 100,000, spot 817 BRPF1",[3]; [5],25.15
same,"Average Normalized Density × 100,000, spot 820, 1081 BFAR",[3]; [5],13.38
same,"Average Normalized Density × 100,000, spot 827 GNAT",[3]; [5],10.78
same,"Average Normalized Density × 100,000, spot 832 PSMB",[3]; [5],3.47
same,"Average Normalized Density × 100,000, spot 860 KRT10",[3]; [5],2.64
same,"Average Normalized Density × 100,000, spot 867 RAI14",[3]; [5],2.41
same,"Average Normalized Density × 100,000, spot 881 CHD4",[3]; [5],28.89
same,"Average Normalized Density × 100,000, spot 897 MY05A",[3]; [5],11.65
same,"Average Normalized Density × 100,000, spot 900 rCG25416",[3]; [5],7.06
same,"Average Normalized Density × 100,000, spot 906 APOE",[3]; [5],74.42
same,"Average Normalized Density × 100,000, spot 966 CMRF-35-like molecule-7",[3]; [5],49.99
same,"Average Normalized Density × 100,000, spot 979 rCG25357",[3]; [5],31.72
same,"Average Normalized Density × 100,000, spot 992 APOA1",[3]; [5],38.11
same,protein spots observed (2D-GE),[3]; [5],2486
same,differentially expressed proteins identified in chagasic plasma of treated rats,"[3]; share of differentially expressed protein spots, FIG. 7B",17%
same,"Average Normalized Density × 100,000, spot 106 CDK5RAP2",[4],2.21
